# Values of other authors in patent US11712474B2, “Reduction of post-surgery cancer metastasis by combination of cannabidiol and NR2F6 inhibition” (priority 2019, dated 2023).
# Where two headings read alike, the source gives them in different places.
# Experiments:
# [1] = tested on: mitogen-activated human peripheral blood mononuclear cells (PBMC)
# [2] = cells of CBD-treated mice vs untreated control mice
SMILES,IL-2 secretion [1],increase of the concentration of measurable IFN [1],measurable quantity of IL-1 [1],measurable quantity of TNF [1],"synthesis and/or release of IFN ([1]; high concentrations, 5-20 micrograms/ml)","insulitis, histological examination of pancreatic islets (NOD mice; CBD-treated NOD mice)",plasma levels of pro-inflammatory cytokines IFN-gamma and TNF-alpha (NOD mice; CBD-treated NOD mice),"incidence of diabetes (NOD mice; CBD-treated NOD mice, 86% in non-treated control mice)",Th1-associated cytokine production of in vitro activated T-cells and peritoneal macrophages (NOD mice; [2]),production of Th2-associated cytokines IL-4 and IL-10 (NOD mice; [2]),synthesis and/or release of IFN [1]
"C=C(C)[C@@H]1CCC(C)=C[C@H]1c1c(O)cc(CCCCC)cc1O [CBD, cannabidiol]",no effect,68%,decrease,decrease,completely blocked,significantly reduced,significant reduction,30%,significantly reduced,increased,
"CCCCCc1cc(O)c2c(c1)OC(C)(C)[C@@H]1CCC(C)=C[C@@H]21 [THC, delta-9-tetrahydrocannabinol]",no effect,139%,,,,,,,,,completely blocked
